Assay results taken from patent publication US20150011466A1, “APJ Receptor Compounds” (priority 2012, published 2015).
Like-named read-outs stand apart in the source and are kept apart here. Where a SMILES comes first, the peptide text is derived from it. [ ]: non-standard residue; d: D form. The star is where a group is joined. Palmitoyl = CCCCCCCCCCCCCCCC(=O)*

Columns and labels:
APJ receptor = biological target: T1, APJ receptor (Homo sapiens, UniProt P35414); assay: HTRF cAMP assay, inhibition of NKH477 stimulated cAMP in Human TRex cells expressing APJ upon doxycycline induction (APJ-hTREX); assay type: cell-based; conditions: for percent intrinsic activity at 0.3 µM: read-out: % IA (@ 300 nM); for Ranking: class combining EC50 and % histamine
T1 construct: expressed in transfected cells; host or cells: Human TRex cells (doxycycline-inducible)
T1 sequence (P35414 1-380): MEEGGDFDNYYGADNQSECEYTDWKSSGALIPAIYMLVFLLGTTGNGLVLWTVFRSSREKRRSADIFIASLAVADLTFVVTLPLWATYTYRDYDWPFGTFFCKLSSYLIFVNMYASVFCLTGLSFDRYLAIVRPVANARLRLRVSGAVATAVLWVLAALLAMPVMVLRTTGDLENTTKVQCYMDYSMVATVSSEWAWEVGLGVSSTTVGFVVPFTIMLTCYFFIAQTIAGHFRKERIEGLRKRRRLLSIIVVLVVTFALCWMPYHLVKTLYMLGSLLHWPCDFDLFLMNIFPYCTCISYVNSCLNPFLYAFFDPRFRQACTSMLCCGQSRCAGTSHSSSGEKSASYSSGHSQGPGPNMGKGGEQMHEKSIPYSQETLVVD
Source text: HTRF (homogeneous time resolved fluorescence) is a technology developed by Cisbio Bioassays based on TR-FRET (time-resolved fluorescence resonance energy transfer). Cisbio Bioassays has developed a wide selection of HTRF-based assays compatible with whole cells, thereby enabling functional assays to run under more physiological conditions. The IP-One assays are competitive immunoassays using cryptate-labeled anti-IP1 monoclonal antibody and d2-labeled IP1. IP1 is a relatively stable downstream metabolite of IP3, and accumulates in cells following Gq receptor activation.
cAMP kits based on a competitive immunoassay using cryptate-labeled anti-cAMP antibody and d2-labeled cAMP were used to assay the effects of APJ compounds of the present invention. […] Cells are treated with […] doxycycline and seeded in all white 96 well plates @ 40 k/well overnight.

Row | SMILES | Histimine (% vs. 48/40) (Histimine (% vs. 48/40)) [%] | percent intrinsic activity at 0.3 µM (APJ receptor) [%] | EC50 (APJ receptor; inhibition of NKH477 stimulated cAMP, APJ-hTREX cells, read-out: APJ-hTREX EC50) [µM] | EC50 (APJ receptor) [µM] | Ranking (APJ receptor)
1 | CCCCCCCCCCCCCCCC(=O)N[C@H](C(=O)N[C@H](C(=O)N[C@@H](Cc1ccccc1)C(=O)N[C@@H](CCCNC(=N)N)C(=O)N[C@@H](CO)C(=O)N[C@@H](CO)C(=O)N[C@@H](CCC(=O)O)C(=O)N[C@H](CCCCN)C(=O)N[C@@H](CCCNC(=N)N)C(=O)N[C@@H](CCCNC(=N)N)C(=O)N[C@@H](CO)C(=O)N[C@@H](C)C(=O)N[C@@H](Cc1c[nH]cn1)C(=O)N[C@H](C(=O)N[C@@H](Cc1ccccc1)C(=O)N[C@H](C(N)=O)[C@@H](C)CC)[C@@H](C)CC)C(C)C)[C@@H](C)O [Compound 16] (Palmitoyl-TVFRSSE[dK]RRSAHIFI-NH2) | 107 | 63 |  |  | 
2 | CCCCCCCCCCCCCCCC(=O)N[C@H](C(=O)N[C@H](C(=O)N[C@@H](Cc1ccccc1)C(=O)N[C@@H](CCCNC(=N)N)C(=O)N[C@@H](CO)C(=O)N[C@@H](CO)C(=O)N[C@@H](CCC(=O)O)C(=O)N[C@H](CCCCN)C(=O)N[C@@H](CCCNC(=N)N)C(=O)N[C@@H](CCCNC(=N)N)C(=O)N[C@@H](CO)C(=O)N[C@@H](C)C(=O)N[C@@H](CC(=O)O)C(=O)N[C@@H](Cc1c[nH]cn1)C(=O)N[C@@H](Cc1ccccc1)C(=O)N[C@H](C(N)=O)[C@@H](C)CC)C(C)C)[C@@H](C)O [Compound 17] (Palmitoyl-TVFRSSE[dK]RRSADHFI-NH2) | 113 | 83 |  |  | 
3 | CCCCCCCCCCCCCCCC(=O)N[C@H](C(=O)N[C@H](C(=O)N[C@@H](Cc1ccccc1)C(=O)N[C@@H](CCCNC(=N)N)C(=O)N[C@@H](CO)C(=O)N[C@@H](CO)C(=O)N[C@@H](CCC(=O)O)C(=O)N[C@H](CCCCN)C(=O)N[C@@H](CCCNC(=N)N)C(=O)N[C@@H](CCCNC(=N)N)C(=O)N[C@@H](CO)C(=O)N[C@@H](C)C(=O)N[C@@H](CC(=O)O)C(=O)N[C@H](C(=O)N[C@@H](Cc1c[nH]cn1)C(=O)N[C@H](C(N)=O)[C@@H](C)CC)[C@@H](C)CC)C(C)C)[C@@H](C)O [Compound 18] (Palmitoyl-TVFRSSE[dK]RRSADIHI-NH2) | 62 | 56 |  |  | 
4 | CCCCCCCCCCCCCCCC(=O)N[C@H](C(=O)N[C@@H](CCC(N)=O)C(=O)N[C@@H](Cc1ccccc1)C(=O)N[C@@H](CCCNC(=N)N)C(=O)N[C@@H](CO)C(=O)N[C@@H](CO)C(=O)N[C@@H](CCC(=O)O)C(=O)N[C@H](CCCCN)C(=O)N[C@@H](CCCNC(=N)N)C(=O)N[C@@H](CCCNC(=N)N)C(=O)N[C@@H](CO)C(=O)N[C@@H](C)C(=O)N[C@@H](CC(=O)O)C(=O)N[C@H](C(=O)N[C@@H](Cc1ccccc1)C(=O)N[C@H](C(N)=O)[C@@H](C)CC)[C@@H](C)CC)[C@@H](C)O [Compound 21] (Palmitoyl-TQFRSSE[dK]RRSADIFI-NH2; C-terminus assumed) | 39 | 72 |  | 0.041 | *** (EC50<100 nM and % histamine>35%)
5 | CCCCCCCCCCCCCCCC(=O)N[C@H](C(=O)N[C@H](C(=O)N[C@@H](Cc1ccccc1)C(=O)N[C@@H](CCCNC(=N)N)C(=O)N[C@@H](CO)C(=O)N[C@@H](CO)C(=O)N[C@@H](CCC(=O)O)C(=O)N[C@H](CCCCN)C(=O)N[C@@H](CCC(N)=O)C(=O)N[C@@H](CCCNC(=N)N)C(=O)N[C@@H](CO)C(=O)N[C@@H](C)C(=O)N[C@@H](CC(=O)O)C(=O)N[C@H](C(=O)N[C@@H](Cc1ccccc1)C(=O)N[C@H](C(N)=O)[C@@H](C)CC)[C@@H](C)CC)C(C)C)[C@@H](C)O [Compound 26] (Palmitoyl-TVFRSSE[dK]QRSADIFI-NH2; C-terminus assumed) | −1 | 6 |  | 0.112 | **** (EC50 101-500 nM and % histamine<35%)

Second part, led by results:

Row | Histimine (% vs. 48/40) (Histimine (% vs. 48/40)) [%] | percent intrinsic activity at 0.3 µM (APJ receptor) [%] | EC50 (APJ receptor; inhibition of NKH477 stimulated cAMP, APJ-hTREX cells, read-out: APJ-hTREX EC50) [µM] | SMILES | EC50 (APJ receptor) [µM] | Ranking (APJ receptor)
6 | 104 | 53 |  | CCCCCCCCCCCCCCCC(=O)N[C@H](C(=O)N[C@H](C(=O)N[C@@H](Cc1ccccc1)C(=O)N[C@@H](CCCNC(=N)N)C(=O)N[C@@H](CO)C(=O)N[C@@H](CO)C(=O)N[C@@H](CCC(=O)O)C(=O)N[C@H](CCCCN)C(=O)N[C@@H](CCCNC(=N)N)C(=O)N[C@@H](CCCNC(=N)N)C(=O)N[C@@H](CO)C(=O)N[C@@H](C)C(=O)N[C@@H](CC(=O)O)C(=O)N[C@H](C(=O)N[C@@H](Cc1ccccc1)C(=O)N[C@@H](Cc1c[nH]cn1)C(N)=O)[C@@H](C)CC)C(C)C)[C@@H](C)O [Compound 19] (Palmitoyl-TVFRSSE[dK]RRSADIFH-NH2) |  | 
7 | 4 | 7 |  | CCCCCCCCCCCCCCCC(=O)N[C@H](C(=O)N[C@H](C(=O)N[C@@H](Cc1ccccc1)C(=O)N[C@@H](CCCNC(=N)N)C(=O)N[C@@H](CO)C(=O)N[C@@H](CO)C(=O)N[C@@H](CCC(=O)O)C(=O)N[C@H](CCCCN)C(=O)N[C@@H](CCCNC(=N)N)C(=O)N[C@@H](CCC(N)=O)C(=O)N[C@@H](CO)C(=O)N[C@@H](C)C(=O)N[C@@H](CC(=O)O)C(=O)N[C@H](C(=O)N[C@@H](Cc1ccccc1)C(=O)N[C@H](C(N)=O)[C@@H](C)CC)[C@@H](C)CC)C(C)C)[C@@H](C)O [Compound 27] (Palmitoyl-TVFRSSE[dK]RQSADIFI-NH2) |  | 
8 | 16 | 8 |  | CCCCCCCCCCCCCCCC(=O)N[C@H](C(=O)N[C@H](C(=O)N[C@@H](Cc1ccccc1)C(=O)N[C@@H](CCCNC(=N)N)C(=O)N[C@@H](CO)C(=O)N[C@@H](CO)C(=O)N[C@@H](CCC(=O)O)C(=O)N[C@H](CCCCN)C(=O)N[C@@H](CCCNC(=N)N)C(=O)N[C@@H](CCCNC(=N)N)C(=O)N[C@@H](CO)C(=O)N[C@@H](CCC(N)=O)C(=O)N[C@@H](CC(=O)O)C(=O)N[C@H](C(=O)N[C@@H](Cc1ccccc1)C(=O)N[C@H](C(N)=O)[C@@H](C)CC)[C@@H](C)CC)C(C)C)[C@@H](C)O [Compound 28] (Palmitoyl-TVFRSSE[dK]RRSQDIFI-NH2) |  | 
9 | 92 | 9 |  | CCCCCCCCCCCCCCCC(=O)N[C@H](C(=O)N[C@H](C(=O)N[C@@H](Cc1ccccc1)C(=O)N[C@@H](CCCNC(=N)N)C(=O)N[C@@H](CO)C(=O)N[C@@H](CO)C(=O)N[C@@H](CCC(=O)O)C(=O)N[C@H](CCCCN)C(=O)N[C@@H](CCCNC(=N)N)C(=O)N[C@@H](CCCNC(=N)N)C(=O)N[C@@H](CO)C(=O)N[C@@H](C)C(=O)N[C@@H](CCC(N)=O)C(=O)N[C@H](C(=O)N[C@@H](Cc1ccccc1)C(=O)N[C@H](C(N)=O)[C@@H](C)CC)[C@@H](C)CC)C(C)C)[C@@H](C)O [Compound 29] (Palmitoyl-TVFRSSE[dK]RRSAQIFI-NH2) |  | 
10 | 63 | 98 | 0.0846 | CCCCCCCCCCCCCCCC(=O)N[C@H](C(=O)N[C@H](C(=O)N[C@@H](Cc1ccccc1)C(=O)N[C@@H](CCCNC(=N)N)C(=O)N[C@@H](CO)C(=O)N[C@@H](CO)C(=O)N[C@@H](CCC(=O)O)C(=O)N[C@H](CCCCN)C(=O)N[C@@H](CCCNC(=N)N)C(=O)N[C@@H](CCCNC(=N)N)C(=O)N[C@@H](CO)C(=O)N[C@@H](C)C(=O)N[C@@H](CC(=O)O)C(=O)N[C@@H](CCC(N)=O)C(=O)N[C@@H](Cc1ccccc1)C(=O)N[C@H](C(N)=O)[C@@H](C)CC)C(C)C)[C@@H](C)O [Compound 30] (Palmitoyl-TVFRSSE[dK]RRSADQFI-NH2; C-terminus assumed) |  | *** (EC50<100 nM and % histamine>35%)
